In brackets after ≈: the same amount, converted by molar mass.
Assays:
HUVEC [1] = assay: Antiproliferative activity against human HUVEC cells incubated for 48 hrs by MTT assay; assay type: functional, cell-based
MDA-MB-231 [2] = assay: Antiproliferative activity against human MDA-MB-231 cells incubated for 48 hrs by MTT assay; assay type: functional, cell-based; settings: MDA-MB-231, 48 h
SK-OV-3 = assay: Antiproliferative activity against human SKOV3 cells incubated for 48 hrs by MTT assay; assay type: functional, cell-based; settings: SK-OV-3, 48 h
DU-145 = assay: Antiproliferative activity against human DU145 cells incubated for 48 hrs by MTT assay; assay type: functional, cell-based; settings: DU-145, 48 h
A549 [3] = assay: Cytotoxicity in human A549 cells assessed a reduction in cell viability incubated for 48 hrs by MTT assay; assay type: functional, cell-based; settings: A549, 48 h
A549 [4] = assay: Cytotoxicity in human A549 cells assessed as reduction in cell viability incubated for 48 hrs by MTT assay; assay type: functional, cell-based; settings: A549, 48 h
U-87 MG = assay: Cytotoxicity in human U87MG cells assessed as reduction in cell viability incubated for 48 hrs by MTT assay; assay type: functional, cell-based, U-87MG ATCC
HT-29 [5] = assay: Cytotoxicity in human HT-29 cells assessed as reduction in cell viability incubated for 48 hrs by MTT assay; assay type: functional, cell-based; settings: HT-29, 48 h
PC-3 = assay: Cytotoxicity in human PC3 cells assessed as reduction in cell viability incubated for 48 hrs by MTT assay; assay type: functional, cell-based; settings: PC-3, 48 h
HeLa [6] = assay: Antiproliferative activity against human HeLa cells incubated for 24 hrs by MTT assay; assay type: functional, cell-based
A549 [7] = assay: Antiproliferative activity against human A549 cells incubated for 24 hrs by MTT assay; assay type: functional, cell-based; settings: A549, 24 h
MCF7 [8] = assay: Antiproliferative activity against human MCF7 cells incubated for 24 hrs by MTT assay; assay type: functional, cell-based; settings: MCF7, 24 h
MDA-MB-231 [9] = assay: Growth inhibition of human MDA-MB-231 cells at 10 uM; assay type: functional; settings: read-out: GI
HEK293 [10] = assay: Cytotoxicity in HEK293 cells at 100 uM by MTT assay; assay type: cell-based; settings: human, hek293, 100 µM
A498 = assay: Growth inhibition of human A498 cells at 10 uM; assay type: functional; settings: read-out: GI
A549 [11] = assay: Antiproliferative activity against human A549 cells incubated for 48 hrs by MTT assay; assay type: functional, cell-based; settings: A549, 48 h
HEK293 [12] = assay: Antiproliferative activity against HEK293 cells incubated for 48 hrs by MTT assay; assay type: cell-based; settings: Homo sapiens, HEK293, 48 h
HT-29 [13] = assay: Antiproliferative activity against human HT-29 cells incubated for 48 hrs by MTT assay; assay type: functional, cell-based; settings: HT-29, 48 h
KB = assay: Cytotoxicity in human KB cells assessed as reduction in cell viability; assay type: functional, cell-based
REH = assay: Cytotoxicity in human REH cells assessed as reduction in cell viability incubated for 48 to 72 hrs by trypan blue dye exclusion assay; assay type: functional, cell-based
K562 = assay: Cytotoxicity in human K562 cells assessed as reduction in cell viability incubated for 48 to 72 hrs by trypan blue dye exclusion assay; assay type: functional, cell-based
Tyrosinase = Tyrosinase (Agaricus bisporus, UniProt O42713); assay: Inhibition of diphenolase activity of mushroom tyrosinase pre-incubated for 30 mins before L-DOPA substrate addition and measured after 1 min by spectrophotometric assay
Tyrosinase, sequence (O42713 whole entry): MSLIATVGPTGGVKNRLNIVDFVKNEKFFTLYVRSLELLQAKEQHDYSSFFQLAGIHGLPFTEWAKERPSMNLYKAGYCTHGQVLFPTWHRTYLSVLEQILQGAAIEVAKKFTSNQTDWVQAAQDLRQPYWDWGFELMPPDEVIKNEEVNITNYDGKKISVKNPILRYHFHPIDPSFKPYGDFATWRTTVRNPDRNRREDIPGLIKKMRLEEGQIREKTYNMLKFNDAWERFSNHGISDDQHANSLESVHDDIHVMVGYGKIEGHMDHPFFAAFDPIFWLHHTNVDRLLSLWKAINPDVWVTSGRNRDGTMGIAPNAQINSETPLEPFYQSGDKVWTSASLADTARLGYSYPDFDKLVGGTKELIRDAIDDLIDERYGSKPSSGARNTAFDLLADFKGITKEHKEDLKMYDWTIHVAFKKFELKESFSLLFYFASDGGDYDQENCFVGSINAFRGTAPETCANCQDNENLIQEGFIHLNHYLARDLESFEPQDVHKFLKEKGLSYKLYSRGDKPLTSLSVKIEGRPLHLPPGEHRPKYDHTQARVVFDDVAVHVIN

MCF7 [14] = assay: Anticancer activity against human MCF7 cells assessed as reduction in cell viability incubated for 48 hrs by MTT assay; assay type: functional, cell-based; settings: MCF7, 48 h
HL-60 = assay: Anticancer activity against human HL60 cells assessed as reduction in cell viability incubated for 48 hrs by MTT assay; assay type: functional, cell-based; settings: HL-60, 48 h
HeLa [15] = assay: Antiproliferative activity against human HeLa cells incubated for 48 hrs by MTT assay; assay type: functional, cell-based
MCF7 [16] = assay: Antiproliferative activity against human MCF7 cells incubated for 48 hrs by MTT assay; assay type: functional, cell-based; settings: MCF7, 48 h
HCT-116 = assay: Antiproliferative activity against human HCT116 cells incubated for 48 hrs by MTT assay; assay type: functional, cell-based; settings: HCT-116, 48 h
[17] = target: Vascular endothelial growth factor receptor 1 (Homo sapiens, UniProt P17948); assay: Inhibition of VEGFR1 (unknown origin) using KKKSPGEYVNIEFG substrate and [33P-g-ATP] incubated for 30 mins
Vascular endothelial growth factor receptor 1, sequence (P17948 whole entry): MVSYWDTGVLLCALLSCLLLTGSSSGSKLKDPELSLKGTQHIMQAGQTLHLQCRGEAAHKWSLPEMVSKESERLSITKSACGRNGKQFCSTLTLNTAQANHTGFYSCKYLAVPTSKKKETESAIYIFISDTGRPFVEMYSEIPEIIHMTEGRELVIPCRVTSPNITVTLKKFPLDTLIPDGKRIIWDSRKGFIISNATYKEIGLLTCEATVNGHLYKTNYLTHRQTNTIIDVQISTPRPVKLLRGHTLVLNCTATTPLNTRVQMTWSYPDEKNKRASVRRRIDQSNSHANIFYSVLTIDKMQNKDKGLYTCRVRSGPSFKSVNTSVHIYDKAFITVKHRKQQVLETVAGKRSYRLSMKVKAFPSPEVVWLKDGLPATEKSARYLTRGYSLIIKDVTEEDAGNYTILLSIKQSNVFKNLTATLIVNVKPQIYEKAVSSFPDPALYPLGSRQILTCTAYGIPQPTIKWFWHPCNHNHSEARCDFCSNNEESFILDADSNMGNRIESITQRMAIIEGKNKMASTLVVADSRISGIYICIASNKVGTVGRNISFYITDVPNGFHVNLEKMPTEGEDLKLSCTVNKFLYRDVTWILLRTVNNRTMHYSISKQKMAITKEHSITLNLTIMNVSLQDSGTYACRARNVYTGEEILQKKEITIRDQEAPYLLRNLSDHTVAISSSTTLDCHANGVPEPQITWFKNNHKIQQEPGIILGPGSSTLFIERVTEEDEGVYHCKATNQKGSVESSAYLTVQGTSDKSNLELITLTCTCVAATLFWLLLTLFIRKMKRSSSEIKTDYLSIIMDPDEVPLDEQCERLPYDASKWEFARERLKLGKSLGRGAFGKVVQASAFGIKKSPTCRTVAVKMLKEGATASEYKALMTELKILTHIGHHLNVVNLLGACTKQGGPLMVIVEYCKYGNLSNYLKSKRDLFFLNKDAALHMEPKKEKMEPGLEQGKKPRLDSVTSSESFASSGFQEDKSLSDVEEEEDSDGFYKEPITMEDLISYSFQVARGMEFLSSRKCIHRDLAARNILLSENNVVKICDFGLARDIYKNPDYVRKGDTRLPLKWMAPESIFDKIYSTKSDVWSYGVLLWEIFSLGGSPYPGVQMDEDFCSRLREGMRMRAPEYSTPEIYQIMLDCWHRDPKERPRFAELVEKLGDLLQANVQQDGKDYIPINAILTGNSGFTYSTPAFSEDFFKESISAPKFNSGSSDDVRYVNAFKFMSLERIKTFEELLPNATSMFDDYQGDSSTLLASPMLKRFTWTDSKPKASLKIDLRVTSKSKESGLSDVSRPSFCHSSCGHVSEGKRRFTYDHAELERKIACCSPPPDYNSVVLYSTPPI

LS180 = assay: Inhibition of P-gp in human LS180 cells assessed as reduction in doxorubicin cytotoxic IC50 level at 50 uM by MTT assay; assay type: functional
HUVEC [18] = assay: Inhibition of VEGF-induced cell migration of HUVEC assessed as wound closure level at cytotoxic IC50 incubated for 24 hrs (reference value: 100%); assay type: functional, Homo sapiens; set-up: scale not given: the % may be the effect or the level left

`CC12CCC(OC(=O)CCC(=O)OCCOc3no[n+]([O-])c3S(=O)(=O)c3ccccc3)CC1=CCC1C2CCC2(C)c3c(cnn3-c3ccccc3)CC12` (stereo unspecified) showed an IC50 (HUVEC [1]) of 3.5 nM, an IC50 (MDA-MB-231 [2]) of 1.4 nM and an IC50 (SK-OV-3) of 3.4 nM. It also gave an IC50 (DU-145) of 20 nM.

Work on `COc1cc(-c2nc(/C=C/C(=O)c3ccc(N)cc3)cc3c2[nH]c2ccccc23)ccc1F` yielded an IC50 (A549 [3]) of under 10 µM.

`COc1ccc(Cn2cc(C(=O)c3cn(-c4ccccc4)nc3-c3ccc(Cl)cc3)nn2)cc1OC` showed an IC50 (A549 [4]) of 1930 nM, an IC50 (U-87 MG) of 860 nM and an IC50 (HT-29 [5]) of 2420 nM. For the same compound, the IC50 (PC-3) was 3.71 µM.

`COc1ccc(Cc2nnc(COc3ncnc4ccccc34)o2)cc1OC` was tested, and the IC50 (HeLa [6]) was 320 nM, the IC50 (A549 [7]) was 380 nM and the IC50 (MCF7 [8]) was 230 nM.

Compound `COc1ccc(-c2cn3c(-c4ccc(OC)cc4)cnc3c(Oc3ccc4c(C)cc(=O)oc4c3)n2)cc1` has an inhibition of growth at 10 µM (MDA-MB-231 [9]) of 93%, an Activity (HEK293 [10]) of 17% and an inhibition of growth at 10 µM (A498) of 90%.

For `COc1ccc(Cn2cc(C(=O)c3cccnc3Nc3ccc(F)cc3)nn2)cc1OC`, the IC50 (A549 [11]) was 4100 nM, the IC50 (HEK293 [12]) was 64.3 µM and the IC50 (HT-29 [13]) was 3.7 µM. For the same compound, the IC50 (DU-145) was 3100 nM.

Work on `O=C(/C=C/c1ccc(/C=C/C(=O)c2cccc3c2C(=O)c2ccccc2C3=O)cc1)c1ccccc1` yielded an IC50 (KB) of 0.66 µg/mL (≈ 1.41 µM).

`COc1ccc(C(=O)/C=C/c2cc3c([nH]c4ccccc43)c(-c3ccc(OC)c(OC)c3)n2)cc1` gave an IC50 (A549 [3]) of under 10 µM.

`COc1cc(C(=O)N/N=C2\C(=O)Nc3ccc(C)cc32)cc(OC)c1OC` was tested, and the IC50 (REH) was 500 nM and the IC50 (K562) was 2000 nM.

Compound `COc1cc(-c2nc(/C=C/C(=O)c3ccc([N+](=O)[O-])cc3)cc3c2[nH]c2ccccc23)cc(OC)c1OC` has an IC50 (A549 [3]) of under 10 µM.

`COc1ccc(C(=O)/C=C/c2cc3c([nH]c4ccccc43)c(-c3ccc(F)cc3)n2)cc1` gave an IC50 (A549 [3]) of under 10 µM.

`Cc1cc(=O)oc2cc(Oc3nc(-c4ccccc4)cn4c(-c5ccccc5)cnc34)ccc12` was tested, and the inhibition of growth at 10 µM (MDA-MB-231 [9]) was 93% and the inhibition of growth at 10 µM (A498) was 90%.

Work on `CN(C)c1ccc(C2CC(c3cc4ccccc4o3)=NN2C(=O)Nc2ccc(Cl)cc2)c2ccccc12` (stereo unspecified) yielded an IC50 (Tyrosinase) of 4.72 µM.

For `COc1ccc(C(=O)/C=C/c2cc3c([nH]c4ccccc43)c(-c3cc(OC)c(OC)c(OC)c3)n2)cc1`, the IC50 (A549 [3]) was under 10 µM.

`COc1cc(C(=O)/C=C/c2cc3c([nH]c4ccccc43)c(-c3ccc(F)cc3)n2)cc(OC)c1OC` gave an IC50 (A549 [3]) of under 10 µM.

Compound `O=C(c1ccccc1)c1ccc2[nH]c(-c3c4ccccc4cc4ccccc34)nc2c1` has an IC50 (MCF7 [14]) of 16.2 µM and an IC50 (HL-60) of 15.2 µM.

Work on `COc1ccc(-c2nc(/C=C/C(=O)c3ccc([N+](=O)[O-])cc3)cc3c2[nH]c2ccccc23)cc1OC` yielded an IC50 (A549 [3]) of under 10 µM.

Compound `COc1ccc(C(=O)/C=C/c2cc3c([nH]c4ccccc43)c(-c3ccc(F)c(OC)c3)n2)cc1` has an IC50 (A549 [3]) of under 10 µM.

With `COc1ccc(Nc2ncccc2C(=O)/C=C/Nc2ccc3[nH]ccc3c2)cc1` the IC50 (A549 [11]) was 510 to 1290 nM, the IC50 (HeLa [15]) was 510 to 1290 nM and the IC50 (MCF7 [16]) was 510 to 1290 nM. It also gave an IC50 (HCT-116) of 510 to 1290 nM.

Compound `COc1cc(-c2nc(/C=C/C(=O)c3ccc([N+](=O)[O-])cc3)cc3c2[nH]c2ccccc23)ccc1F` has an IC50 (A549 [3]) of under 10 µM.

In the case of `COc1ccc(-c2nn(-c3ccccc3)cc2C(=O)c2cn(Cc3ccc(OC)c(OC)c3)nn2)cc1`, the IC50 (A549 [4]) is reported as 2240 nM, the IC50 (U-87 MG) is reported as 970 nM and the IC50 (HT-29 [5]) is reported as 1780 nM. The IC50 (PC-3) was 3.52 µM.

In the case of `O=C(Nc1ccc(F)cc1)c1sccc1Nc1cccc2c1OCO2`, the IC50 [17] is reported as 2500 nM, the “Ratio IC50” value (LS180) is reported as 14 and the Activity (HUVEC [18]) is reported as 20%.

— ChEMBL document CHEMBL4270497, “Recent advances (2015-2016) in anticancer hybrids” (Eur J Med Chem, 2017)
